# ChEMBL document CHEMBL4196078, “Polypharmacology in HIV inhibition: can a drug with simultaneous action against two relevant targets be an alternative to combination therapy?” (Eur J Med Chem, 2018)
# Key:
# [1] = test system: Human immunodeficiency virus 1; test: Antiviral activity against HIV1 3B infected in human CEM/0 after 4 days by microscopic method; format: functional, organism-based; conditions: Human immunodeficiency virus 1, 3B, CCRF-CEM, 96 h
# [2] = molecular target: T1, Human immunodeficiency virus type 1 reverse transcriptase (Human immunodeficiency virus 1, UniProt Q72547); test: Inhibition of HIV1 3B reverse transcriptase using polyC/oligo(dG12) as template/primer in presence of [3H]dGTP and calf thymus DNA after 30 mins
# [3] = molecular target: Human immunodeficiency virus type 1 reverse transcriptase (Human immunodeficiency virus 1, UniProt Q72547, E138K); test: Inhibition of TSAO resistant HIV1 3B reverse transcriptase E138K mutant using polyC/oligo(dG12) as template/primer in presence of [3H]dGTP and calf thymus DNA after 30 mins
# [4] = test system: Human immunodeficiency virus 1; test: Antiviral activity against HIV1 infected in human CEM cells assessed as reduction in giant cell formation by microscopic method; format: functional, organism-based; conditions: Human immunodeficiency virus 1, CCRF-CEM
# [5] = Half life of the compound in PBS by HPLC analysis; format: physicochemical
# [6] = molecular target: T1, Human immunodeficiency virus type 1 reverse transcriptase; test: Inhibition of HIV1 reverse transcriptase RNase H using RNA-DNA hybrid duplex after 30 mins by FRET-based microplate fluorescence assay
# [7] = molecular target: T1, Human immunodeficiency virus type 1 reverse transcriptase; test: Inhibition of HIV1 reverse transcriptase polymerase p51/p66 after 10 to 20 mins in presence of [3H]-TTP by liquid scintillation counting method
# [8] = test system: Human immunodeficiency virus 1; test: Antiviral activity against HIV1; format: functional, organism-based
# [9] = test system: Hepatitis B virus; test: Antiviral activity against HBV; format: functional, organism-based
# [10] = test system: Herpesviridae sp.; test: Antiviral activity against HSV; format: functional, organism-based
# [11] = test system: Herpesviridae sp.; test: Potency index, ratio of tenofovir EC50 to compound EC50 for antiviral activity against HSV; format: functional
# [12] = test system: Human immunodeficiency virus 1; test: Antiviral activity against HIV1 3B infected in human MT4 cells by MTT assay; format: functional, organism-based; conditions: Human immunodeficiency virus 1, 3B
# [13] = test system: Human immunodeficiency virus 1; test: Antiviral activity against HIV1 3B infected in human PBMC after 5 days by MTT assay; format: functional, organism-based; conditions: Human immunodeficiency virus 1, 3B, 120 h
# [14] = test system: Human immunodeficiency virus 1; test: Antiviral activity against HIV1 Lai infected in human CEM-SS cells after 5 days by MTT assay; format: functional, organism-based; conditions: Human immunodeficiency virus 1, M:B_Lai, 120 h
# [15] = test system: Human immunodeficiency virus 2; test: Antiviral activity against HIV2 D194 infected in human PBMC after 5 days by MTT assay; format: functional, organism-based, Human immunodeficiency virus type 2 (ISOLATE D194); conditions: Human immunodeficiency virus 2, 120 h
# [16] = test system: Human immunodeficiency virus 1; test: Antiviral activity against HIV1 3B infected in human MT4 cells; format: functional, organism-based; conditions: Human immunodeficiency virus 1, 3B
# [17] = test system: Human immunodeficiency virus 1; test: Antiviral activity against HIV1 Lai infected in human MOLT4 cells after 7 days by WST8 assay; format: functional, organism-based; conditions: Human immunodeficiency virus 1, M:B_Lai, MOLT-4, 168 h
# [18] = molecular target: Gag-Pol polyprotein (Human immunodeficiency virus type 1 group M subtype B (isolate HXB2)(HIV-1), UniProt P04585); test: Inhibition of HIV1 reverse transcriptase polymerase; design: species or system Human immunodeficiency virus 1
# [19] = molecular target: T1, Human immunodeficiency virus type 1 reverse transcriptase; test: Inhibition of HIV1 reverse transcriptase RNase H
# [20] = Stability in culture medium containing 10% FBS at 100 uM after 72 hrs by HPLC analysis; format: ADME; conditions: cattle, read-out: Stability
# [21] = test system: Human immunodeficiency virus 2; test: Antiviral activity against HIV2; format: functional, organism-based
# [22] = test system: Moloney murine sarcoma virus; test: Antiviral activity against MSV; format: functional, organism-based
# [23] = test system: Human alphaherpesvirus 3; test: Antiviral activity against VZV; format: functional, organism-based
# [24] = test system: Human immunodeficiency virus 1; test: Antiviral activity against PFA-resistant HIV1 harboring RT W88G mutant infected in human P4/R5 cells after 48 hrs by beta-galactosidase reporter gene assay; format: functional, organism-based; conditions: Human immunodeficiency virus 1, P4/R5, 48 h
structure (smiles),measurement,setting,value
Cc1cn([C@@H]2O[C@H](CO[Si](C)(C)C(C)(C)C)[C@@]3(OS(=O)(=O)C=C3N)[C@H]2O[Si](C)(C)C(C)(C)C)c(=O)n(CCCn2c(=O)c(C)cn([C@H]3C[C@H](N=[N+]=[N-])[C@@H](CO)O3)c2=O)c1=O,EC50,[1],90 nM
COC(=O)P(=O)([O-])OCCCn1c(=O)c(C)cn([C@@H]2O[C@H](CO[Si](C)(C)C(C)(C)C)[C@@]3(OS(=O)(=O)C=C3N)[C@H]2O[Si](C)(C)C(C)(C)C)c1=O.[Na+],IC50,[2],3.7 to 11 µM
same,IC50,[3],293 to 430 µM
same,EC50,[4],80 to 4500 nM
same,half-life,[5],30 min
COc1ccc2ccccc2c1/C=N/NC(=O)c1ccc(-c2ccccc2)cc1,IC50,[6],5 µM
same,IC50,[7],500 nM
Cc1cn([C@H]2C=C[C@@H](COC(=O)NCCCCNC(=O)OC[C@H]3O[C@@H](n4cc(C)c(=O)[nH]c4=O)C[C@@H]3N=[N+]=[N-])O2)c(=O)[nH]c1=O,EC50,[8],96300 nM
Nc1cc(OCCOCP(=O)(O)O)nc(N)n1,EC50,[8],0.8 µg/mL
same,EC50,[9],300 nM
same,EC50,[10],6.3 µg/mL
same,Ratio EC50,[11],20
COC(=O)P(=O)(OC)OCCCn1c(=O)c(C)cn([C@@H]2O[C@H](CO[Si](C)(C)C(C)(C)C)[C@@]3(OS(=O)(=O)C=C3N)[C@H]2O[Si](C)(C)C(C)(C)C)c1=O (stereo partly specified),EC50,[4],80 to 4500 nM
same,half-life,[5],30 min
CCc1c(Sc2cc(C)cc(C)c2)n(CCCCC(=O)NCCCCCCCCCCCCNc2ccn([C@H]3CC[C@@H](CO)O3)c(=O)n2)c(=O)[nH]c1=O,EC50,[12],450 nM
same,EC50,[13],450 nM
same,EC50,[14],450 nM
same,EC50,[15],450 nM
Cc1cn([C@H]2C[C@H](N=[N+]=[N-])[C@@H](CO)O2)c(=O)[nH]c1=O [ZIDOVUDINE],EC50,[16],2 nM
same,EC50,[8],126 nM
same,EC50,[17],6.2 nM
Cc1cn([C@H]2C=C[C@@H](COC(=O)OC[C@H]3O[C@@H](n4cc(C)c(=O)[nH]c4=O)C[C@@H]3N=[N+]=[N-])O2)c(=O)[nH]c1=O,EC50,[8],6 nM
C[C@H](Cn1cnc2c(N)ncnc21)OCP(=O)(O)O [TENOFOVIR ANHYDROUS],EC50,[10],105 µg/mL
O=C1c2ccccc2C(=O)c2c1ccc(O)c2O [ATHRAQUINONES A],IC50,[18],79 µM
same,IC50,[19],> 100 µM
Cc1cn([C@H]2C[C@H](N=[N+]=[N-])[C@@H](COC(=O)NCCCCNC(=O)OC[C@H]3O[C@@H](n4cc(C)c(=O)[nH]c4=O)C[C@@H]3N=[N+]=[N-])O2)c(=O)[nH]c1=O,EC50,[8],26000 nM
Cc1cn([C@@H]2O[C@H](CO[Si](C)(C)C(C)(C)C)[C@@]3(OS(=O)(=O)C=C3N)[C@H]2O[Si](C)(C)C(C)(C)C)c(=O)n(CCCOP(=O)(O)C(=O)OCc2ccccc2)c1=O,IC50,[2],3.7 to 11 µM
same,IC50,[3],293 to 430 µM
same,EC50,[4],80 to 4500 nM
same,half-life,[5],30 min
Cc1cn([C@H]2C[C@H](N=[N+]=[N-])[C@@H](COP(=O)(OC[C@@H]3CC[C@H](n4cnc5c(=O)[nH]cnc54)O3)OC[C@@H]3CC[C@H](n4cnc5c(=O)[nH]cnc54)O3)O2)c(=O)[nH]c1=O,EC50,[16],165 nM
Cc1cn([C@H]2C[C@H](N=[N+]=[N-])[C@@H](COP(=O)(O)OC[C@@H]3CC[C@H](n4cnc5c(=O)[nH]cnc54)O3)O2)c(=O)[nH]c1=O,EC50,[16],2 nM
same,"remaining at 72 h, 100 µM",[20],57%
CCc1c(Sc2cc(C)cc(C)c2)n(COCCO)c(=O)[nH]c1=O,EC50,[16],7 nM
O=C(Oc1ccc2c(c1OC(=O)c1ccccc1)C(=O)c1ccccc1C2=O)c1ccccc1,IC50,[18],12 µM
same,IC50,[19],13 µM
Cc1cn([C@H]2C[C@H](N=[N+]=[N-])[C@@H](COP(=O)(O)OC[C@H]3O[C@@H](n4cnc(C(N)=O)n4)[C@H](O)[C@@H]3O)O2)c(=O)[nH]c1=O,"remaining at 72 h, 100 µM",[20],36%
O=c1[nH]cnc2c1ncn2[C@H]1CC[C@@H](CO)O1 [DIDANOSINE],EC50,[16],13300 nM
Cc1cn([C@H]2C[C@H](N=[N+]=[N-])[C@@H](COC(=O)OC[C@H]3O[C@@H](n4cc(C)c(=O)[nH]c4=O)C[C@@H]3N=[N+]=[N-])O2)c(=O)[nH]c1=O,EC50,[8],2 nM
Nc1nc(N)nc(OCCOCP(=O)(O)O)n1,EC50,[8],2400 nM
same,EC50,[9],3100 nM
same,EC50,[21],3.7 µM
same,EC50,[22],350 nM
same,EC50,[23],3.1 µM
Cc1cccc(C)c1OCC(=O)N[C@@H](Cc1ccccc1)[C@H](O)C(=O)N1CSC(C)(C)[C@H]1C(=O)NC(C)(C)C,EC50,[17],92 nM
Cc1cn([C@@H]2O[C@H](CO[Si](C)(C)C(C)(C)C)[C@@]3(OS(=O)(=O)C=C3N)[C@H]2O[Si](C)(C)C(C)(C)C)c(=O)n(CCCOP(=O)(O)C(=O)O)c1=O,IC50,[2],3.7 to 11 µM
same,IC50,[3],293 to 430 µM
same,EC50,[4],80 to 4500 nM
same,EC50,[24],160 nM
same,half-life,[5],30 min
Cc1cn([C@H]2C=C[C@@H](COC(=O)OC[C@@H]3C=C[C@H](n4cc(C)c(=O)[nH]c4=O)O3)O2)c(=O)[nH]c1=O,EC50,[8],240 nM
Cc1cn([C@H]2C=C[C@@H](COC(=O)OCc3ccc(NC(=O)/C(O)=C/C(=O)c4cc(OCc5ccccc5)cc(OCc5ccccc5)c4)cc3)O2)c(=O)[nH]c1=O (stereo in doubt),EC50,[8],430 nM
CC(C)(C)NC(=O)[C@H]1N(C(=O)[C@@H](O)[C@H](Cc2ccccc2)NC(=O)CC(C)(C)C(=O)O)CSC1(C)C,EC50,[8],52 nM
Nc1ncnc2c1ncn2CCOCP(=O)(O)O [ADEFOVIR],EC50,[8],2000 nM
same,IC50,[9],700 nM
Cc1cn([C@@H]2O[C@H](CO[Si](C)(C)C(C)(C)C)[C@@]3(OS(=O)(=O)C=C3N)[C@H]2O[Si](C)(C)C(C)(C)C)c(=O)n(CCCO)c1=O,EC50,[4],100 nM
CCOC(=O)P(=O)(O)OCCCn1c(=O)c(C)cn([C@@H]2O[C@H](CO[Si](C)(C)C(C)(C)C)[C@@]3(OS(=O)(=O)C=C3N)[C@H]2O[Si](C)(C)C(C)(C)C)c1=O,IC50,[2],3.7 to 11 µM
same,IC50,[3],293 to 430 µM
same,EC50,[4],80 to 4500 nM
same,half-life,[5],30 min
Cc1cccc(C)c1OCC(=O)N[C@@H](Cc1ccccc1)[C@H](OC(=O)CCCC(=O)NCC(=O)OC[C@H]1O[C@@H](n2cc(C)c(=O)[nH]c2=O)C[C@@H]1N=[N+]=[N-])C(=O)N1CSC(C)(C)[C@H]1C(=O)NC(C)(C)C,EC50,[17],0.1 nM
COc1ccc2ccccc2c1/C=N/NC(=O)c1ccc(Oc2ccccc2)cc1,IC50,[6],7 µM
same,IC50,[7],400 nM
COc1ccc2ccccc2c1/C=N/NC(=O)c1ccc(O)c(O)c1,IC50,[6],0.5 µM
same,IC50,[7],> 25000 nM
NC(=O)c1ncn([C@@H]2O[C@H](COP(=O)(O)OC[C@@H]3CC[C@H](n4cnc5c(=O)[nH]cnc54)O3)[C@@H](O)[C@H]2O)n1,"remaining at 72 h, 100 µM",[20],44%
